Reference: US10196390B2, “TYK2 inhibitors and uses thereof” (Nimbus Lakshmi, Inc., priority 2014, dated 2019)

How the values were obtained:
[1] = target: JAK2 (Homo sapiens (Human), UniProt O60674); assay: JAK2 activity inhibition assay (radioactive kinase assay / Caliper assay); type: biochemical; settings: read-out: JAK2 Ki
Method: The caliper machine employs an off chip mobility shift assay to detect phosphorylated peptide substrates from kinase assays, using microfluidics technology. […] Compounds are serially diluted in DMSO then further diluted in assay buffer (25 mM HEPES, pH 7.5, 0.01% Brij-35, 0.01% Triton, 0.5 mM EGTA). 5 ul of diluted compound was added into wells first, then 10 ul of enzyme mix was added into wells, followed by 10 uL of substrate mix (peptide and ATP in 10 mM MgCl2) to start reaction. Reaction was incubated at 28° C. for 25 min and then added 25 ul stop buffer (100 mM HEPES, 0.015% Brij-35, 50 mM EDTA), followed by reading with Caliper.

[2] = target: TYK2 (Homo sapiens (Human), UniProt P29597); assay: Tyk2 activity inhibition assay (radioactive kinase assay / Caliper assay); type: biochemical
Chain of TYK2 (P29597 whole entry): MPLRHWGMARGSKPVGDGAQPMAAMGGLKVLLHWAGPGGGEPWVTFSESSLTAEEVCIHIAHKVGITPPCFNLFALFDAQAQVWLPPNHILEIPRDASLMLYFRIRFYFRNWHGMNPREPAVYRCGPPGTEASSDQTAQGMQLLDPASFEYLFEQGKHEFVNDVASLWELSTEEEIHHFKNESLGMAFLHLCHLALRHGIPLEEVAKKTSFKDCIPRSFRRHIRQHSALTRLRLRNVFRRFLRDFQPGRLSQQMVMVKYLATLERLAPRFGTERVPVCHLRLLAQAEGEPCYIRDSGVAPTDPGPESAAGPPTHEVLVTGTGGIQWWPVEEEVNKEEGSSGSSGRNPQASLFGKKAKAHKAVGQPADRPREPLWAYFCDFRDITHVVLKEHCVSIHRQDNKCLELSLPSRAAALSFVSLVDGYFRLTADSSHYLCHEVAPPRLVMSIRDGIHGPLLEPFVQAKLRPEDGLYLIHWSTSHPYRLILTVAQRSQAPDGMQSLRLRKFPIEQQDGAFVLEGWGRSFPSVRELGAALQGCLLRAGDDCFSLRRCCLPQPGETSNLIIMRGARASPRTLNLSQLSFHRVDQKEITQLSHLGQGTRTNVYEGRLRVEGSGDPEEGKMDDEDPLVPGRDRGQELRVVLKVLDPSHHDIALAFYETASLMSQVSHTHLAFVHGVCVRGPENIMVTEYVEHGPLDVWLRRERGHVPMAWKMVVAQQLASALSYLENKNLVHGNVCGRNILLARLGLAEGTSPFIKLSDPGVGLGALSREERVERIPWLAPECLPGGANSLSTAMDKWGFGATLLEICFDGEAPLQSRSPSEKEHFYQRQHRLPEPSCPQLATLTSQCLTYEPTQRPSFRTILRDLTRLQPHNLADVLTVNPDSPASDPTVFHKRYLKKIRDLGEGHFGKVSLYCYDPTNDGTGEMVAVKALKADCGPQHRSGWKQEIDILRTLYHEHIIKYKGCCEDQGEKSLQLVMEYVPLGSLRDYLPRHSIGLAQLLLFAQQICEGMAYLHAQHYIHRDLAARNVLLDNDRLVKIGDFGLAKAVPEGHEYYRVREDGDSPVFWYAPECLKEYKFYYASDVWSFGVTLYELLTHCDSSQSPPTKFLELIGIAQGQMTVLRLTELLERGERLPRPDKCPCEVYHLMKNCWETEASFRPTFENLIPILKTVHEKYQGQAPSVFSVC
Method: Peptide substrate, [[…]], (20 μM) is prepared in reaction buffer (20 mM Hepes pH 7.5, 10 mM MgCl2, 1 mM EGTA, 0.02% Brij35, 0.02 mg/mL BSA, […], 2 mM DTT, 1% DMSO. TYK2 (Invitrogen) kinase is added, followed by compounds in DMSO. 33PATP is added to initiate the reaction in ATP at 10 μM. Kinase reaction is incubated for 120 min at room temp and reactions are spotted onto P81 ion exchange paper (Whatman #3698-915), and then washed extensively in 0.75% phosphoric acid, prior to reading the radioactivity counts. For JAK2 (Invitrogen) kinase assay the peptide substrate poly[Glu:Tyr](4:1), 0.2 mg/ml is used, in the reaction carried out the same as for TYK2.
The caliper machine employs an off chip mobility shift assay to detect phosphorylated peptide substrates from kinase assays, using microfluidics technology. The assays are carried out at ATP concentration equivalent to the ATP Km, and at 1 mM ATP. Compounds are serially diluted in DMSO then further diluted in assay buffer (25 mM HEPES, pH 7.5, 0.01% Brij-35, 0.01% Triton, 0.5 mM EGTA). 5 ul of diluted compound was added into wells first, then 10 ul of enzyme mix was added into wells, followed by 10 uL of substrate mix (peptide and ATP in 10 mM MgCl2) to start reaction. Reaction was incubated at 28° C. for 25 min and then added 25 ul stop buffer (100 mM HEPES, 0.015% Brij-35, 50 mM EDTA), followed by reading with Caliper. JAK2 at 1 nM final concentration and TYK2 at 9.75 nM are from Carna, and substrates used are ATP at 20 and 16 uM, respectively. JAK2 assay uses peptide 22 and TYK2 uses peptide 30 (Caliper), each at 3 uM.

Chain of JAK2 (O60674 whole entry): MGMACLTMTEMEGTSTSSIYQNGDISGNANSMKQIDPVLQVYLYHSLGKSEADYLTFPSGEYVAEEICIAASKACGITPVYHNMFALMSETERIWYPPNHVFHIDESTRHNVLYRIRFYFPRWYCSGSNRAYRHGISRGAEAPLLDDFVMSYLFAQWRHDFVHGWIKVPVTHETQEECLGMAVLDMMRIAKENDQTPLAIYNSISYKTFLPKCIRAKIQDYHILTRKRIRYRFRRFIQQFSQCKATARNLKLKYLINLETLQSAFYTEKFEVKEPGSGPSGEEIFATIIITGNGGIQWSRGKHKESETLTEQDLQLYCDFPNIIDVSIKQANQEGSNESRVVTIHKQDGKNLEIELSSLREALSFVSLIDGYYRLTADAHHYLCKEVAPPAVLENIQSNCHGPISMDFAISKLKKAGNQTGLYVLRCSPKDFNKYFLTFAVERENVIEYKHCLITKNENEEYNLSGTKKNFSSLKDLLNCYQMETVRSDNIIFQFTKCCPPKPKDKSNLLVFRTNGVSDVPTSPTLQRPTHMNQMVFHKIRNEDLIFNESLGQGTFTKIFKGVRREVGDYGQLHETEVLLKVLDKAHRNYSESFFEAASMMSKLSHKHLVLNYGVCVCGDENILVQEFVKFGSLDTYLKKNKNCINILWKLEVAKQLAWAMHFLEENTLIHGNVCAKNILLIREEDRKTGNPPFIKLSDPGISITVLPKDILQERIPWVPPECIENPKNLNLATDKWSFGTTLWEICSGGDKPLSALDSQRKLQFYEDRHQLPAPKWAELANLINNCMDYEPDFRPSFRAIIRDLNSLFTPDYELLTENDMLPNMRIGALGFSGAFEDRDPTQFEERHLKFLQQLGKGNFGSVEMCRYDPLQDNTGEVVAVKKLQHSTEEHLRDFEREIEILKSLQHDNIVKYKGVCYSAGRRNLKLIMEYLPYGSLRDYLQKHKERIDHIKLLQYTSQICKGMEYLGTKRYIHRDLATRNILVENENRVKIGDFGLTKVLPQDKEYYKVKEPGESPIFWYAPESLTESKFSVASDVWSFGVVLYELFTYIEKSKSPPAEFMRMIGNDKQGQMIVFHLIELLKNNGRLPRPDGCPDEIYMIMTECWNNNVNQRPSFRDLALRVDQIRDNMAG

SMILES	Ki [1]	Ki [2]
O=C(Cc1ccc(Nc2nc(-c3c(F)cccc3F)nc3c2C(=O)NC3)cc1)NC1CNC1 [Compound I-12, N-(azetidin-3-yl)-2-(4-((2-(2,6-difluorophenyl)-5-oxo-6,7-dihydro-5H-pyrrolo[3,4-d]pyrimidin-4-yl)amino)phenyl)acetamide]	100 to 1000 nM	–
COC(=O)Cc1ncc(Nc2nc(-c3c(F)cccc3F)nc3c2C(=O)NC3)cn1 [Compound I-166, methyl 2-(5-((2-(2,6-difluorophenyl)-5-oxo-6,7-dihydro-5H-pyrrolo[3,4-d]pyrimidin-4-yl)amino)pyrimidin-2-yl)acetate]	–	100 to 1000 nM
C[C@@H](C(=O)O)c1ccc(Nc2nc(-c3c(F)cccc3F)nc3c2C(=O)NC3)cc1 [Compound I-190, (R)-2-(4-((2-(2,6-difluorophenyl)-5-oxo-6,7-dihydro-5H-pyrrolo-[3,4-d]pyrimidin-4-yl)amino)phenyl)propanoic Acid]	100 to 1000 nM	–
C[C@H](C(=O)O)c1ccc(Nc2nc(-c3c(F)cccc3F)nc3c2C(=O)NC3)cc1 [Compound I-191, (S)-2-(4-((2-(2,6-difluorophenyl)-5-oxo-6,7-dihydro-5H-pyrrolo-[3,4-d]pyrimidin-4-yl)amino)phenyl)propanoic Acid]	100 to 1000 nM	–
O=C1NCc2nc(-c3c(F)cccc3F)cc(Nc3ccc(F)cc3)c21 [Compound I-235, 2-(2,6-difluorophenyl)-4-((4-fluorophenyl)amino)-6,7-dihydro-5H-pyrrolo[3,4-b]pyridin-5-one]	100 to 1000 nM	–
COc1ccc(Nc2cc(-c3c(F)cccc3F)nc3c2C(=O)NC3C)nc1 (stereo not drawn) [Compound I-239, 2-(2,6-difluorophenyl)-4-((5-methoxypyridin-2-yl)amino)-7-methyl-6,7-dihydro-5H-pyrrolo[3,4-b]pyridin-5-one]	100 to 1000 nM	–
CC1(C)CCN(c2ccc(Nc3cc(-c4c(F)cccc4F)nc4c3C(=O)NC4)nc2)CC1 [Compound I-252, 2-(2,6-difluorophenyl)-4-((5-(4,4-dimethylpiperidin-1-yl)pyridin-2-yl)amino)-6,7-dihydro-5H-pyrrolo[3,4-b]pyridin-5-one]	100 to 1000 nM	–
CC1(c2ccc(Nc3nc(-c4c(F)cccc4F)nc4c3C(=O)NC4)cc2)COC1 [Compound I-255, 2-(2,6-difluorophenyl)-4-((4-(3-methyloxetan-3-yl)phenyl)-amino)-6,7-dihydro-5H-pyrrolo[3,4-d]pyrimidin-5-one]	10 to 100 nM	–
C[C@@H]1CCC[C@H](C)N1c1ccc(Nc2cc(-c3c(F)cccc3F)nc3c2C(=O)NC3)nc1 [Compound I-261, 2-(2,6-difluorophenyl)-4-((5-((2R,6S)-2,6-dimethylpiperidin-1-yl)pyridin-2-yl)amino)-6,7-dihydro-5H-pyrrolo[3,4-b]pyridin-5-one]	10 to 100 nM	–
CC1(C)CN(c2ccc(Nc3cc(-c4c(F)cccc4F)nc4c3C(=O)NC4)nc2)CC[C@@H]1O [Compound I-267, (S)-2-(2,6-difluorophenyl)-4-((5-(4-hydroxy-3,3-dimethylpiperidin-1-yl)pyridin-2-yl)amino)-6,7-dihydro-5H-pyrrolo[3,4-b]pyridin-5-one]	10 to 100 nM	–
O=C1NCc2nc(-c3c(F)cccc3F)cc(Nc3ccc(N4CCCC(O)C4)cn3)c21 (stereo not drawn) [Compound I-269, 2-(2,6-difluorophenyl)-4-((5-(3-hydroxypiperidin-1-yl)pyridin-2-yl)amino)-6,7-dihydro-5H-pyrrolo[3,4-b]pyridin-5-one]	10 to 100 nM	–
CC1(O)CCN(C(=O)c2ccc(Nc3cc(-c4c(F)cccc4F)nc4c3C(=O)NC4)cc2)CC1 [Compound I-275, 2-(2,6-difluorophenyl)-4-((4-(4-hydroxy-4-methylpiperidine-1-carbonyl)phenyl)amino)-6,7-dihydro-5H-pyrrolo[3,4-b]pyridin-5-one]	10 to 100 nM	–
O=C1NCc2nc(-c3c(F)cccc3F)cc(Nc3ccc(N4C5COCC4C5)cn3)c21 [Compound I-279, 4-((5-(3-oxa-6-azabicyclo[3.1.1]heptan-6-yl)pyridin-2-yl)amino)-2-(2,6-difluorophenyl)-6,7-dihydro-5H-pyrrolo[3,4-b]pyridin-5-one]	10 to 100 nM	–
CC1(C)CCCC(=O)N1c1ccc(Nc2cc(-c3c(F)cccc3F)nc3c2C(=O)NC3)nc1 [Compound I-284, 2-(2,6-difluorophenyl)-4-((5-(2,2-dimethyl-6-oxopiperidin-1-yl)pyridin-2-yl)amino)-6,7-dihydro-5H-pyrrolo[3,4-b]pyridin-5-one]	10 to 100 nM	–
CCNC(=O)c1cnc(Nc2cc(-c3c(F)cccc3F)nc3c2C(=O)NC3)cc1F [Compound I-286, 6-((2-(2,6-difluorophenyl)-5-oxo-6,7-dihydro-5H-pyrrolo[3,4-b]pyridin-4-yl)amino)-N-ethyl-4-fluoronicotinamide]	100 to 1000 nM	–

The remaining lines, values ahead:

Ki [1]	Ki [2]	SMILES
10 to 100 nM	–	COCCNC(=O)c1ccc(Nc2cc(-c3c(F)cccc3F)nc3c2C(=O)NC3)nc1 [Compound I-141, 6-((2-(2,6-difluorophenyl)-5-oxo-6,7-dihydro-5H-pyrrolo[3,4-b]pyridin-4-yl)amino)-N-(2-methoxyethyl)nicotinamide]
10 to 100 nM	–	CCNC(=O)c1ccc(Nc2cc(-c3c(F)cccc3Cl)nc3c2C(=O)NC3)nc1 [Compound I-146, 6-((2-(2-chloro-6-fluorophenyl)-5-oxo-6,7-dihydro-5H-pyrrolo[3,4-b]pyridin-4-yl)amino)-N-ethylnicotinamide]
10 to 100 nM	–	CCC1(c2ccc(Nc3nc(-c4c(F)cccc4F)nc4c3C(=O)NC4)cc2)CCNC1=O (stereo not drawn) [Compound I-175, 2-(2,6-difluorophenyl)-4-((4-(3-ethyl-2-oxopyrrolidin-3-yl)phenyl)amino)-6,7-dihydro-5H-pyrrolo[3,4-d]pyrimidin-5-one]
10 to 100 nM	–	CC[C@]1(c2ccc(Nc3nc(-c4c(F)cccc4F)nc4c3C(=O)NC4)cc2)CCNC1=O [Compound I-177, (R)-2-(2,6-difluorophenyl)-4-((4-(3-ethyl-2-oxopyrrolidin-3-yl)phenyl)amino)-6,7-dihydro-5H-pyrrolo[3,4-d]pyrimidin-5-one]
10 to 100 nM	–	COC(=O)C(C)c1ccc(Nc2nc(-c3c(F)cccc3F)nc3c2C(=O)NC3)cc1 (stereo not drawn) [Compound I-188, methyl 2-(4-((2-(2,6-difluorophenyl)-5-oxo-6,7-dihydro-5H-pyrrolo[3,4-d]pyrimidin-4-yl)amino)phenyl)propanoate]
10 to 100 nM	–	CN1CCN(C)C(C)(c2ccc(Nc3nc(-c4c(F)cccc4F)nc4c3C(=O)NC4)cc2)C1=O (stereo not drawn) [Compound I-209, 2-(2,6-difluorophenyl)-4-((4-(1,2,4-trimethyl-3-oxopiperazin-2-yl)phenyl)amino)-6,7-dihydro-5H-pyrrolo[3,4-d]pyrimidin-5-one]
10 to 100 nM	–	CN1CCN(C)[C@](C)(c2ccc(Nc3nc(-c4c(F)cccc4F)nc4c3C(=O)NC4)cc2)C1=O [Compound I-210, (R)-2-(2,6-difluorophenyl)-4-((4-(1,2,4-trimethyl-3-oxopiperazin-2-yl)phenyl)amino)-6,7-dihydro-5H-pyrrolo[3,4-d]pyrimidin-5-one]
10 to 100 nM	–	O=C1NCc2nc(-c3c(F)cccc3F)cc(Nc3ccc(C(=O)N4CCOCC4)cn3)c21 [Compound I-212, 2-(2,6-difluorophenyl)-4-((5-(morpholine-4-carbonyl)pyridin-2-yl)amino)-6,7-dihydro-5H-pyrrolo[3,4-b]pyridin-5-one]
10 to 100 nM	–	CC1COCCN1c1ccc(Nc2cc(-c3c(F)cccc3F)nc3c2C(=O)NC3)nc1 (stereo not drawn) [Compound I-244, 2-(2,6-difluorophenyl)-4-((5-(3-methylmorpholino)pyridin-2-yl)amino)-6,7-dihydro-5H-pyrrolo[3,4-b]pyridin-5-one]
10 to 100 nM	–	O=C1NCc2nc(-c3c(F)cccc3F)cc(Nc3ccc(C4=CCOCC4)cn3)c21 [Compound I-249, 2-(2,6-difluorophenyl)-4-((5-(3,6-dihydro-2H-pyran-4-yl)pyridin-2-yl)amino)-6,7-dihydro-5H-pyrrolo[3,4-b]pyridin-5-one]
10 to 100 nM	–	O=C1NCc2nc(-c3c(F)cccc3F)cc(Nc3ccc(C4(O)CCOCC4)cn3)c21 [Compound I-251, 2-(2,6-difluorophenyl)-4-((5-(4-hydroxytetrahydro-2H-pyran-4-yl)pyridin-2-yl)amino)-6,7-dihydro-5H-pyrrolo[3,4-b]pyridin-5-one]
10 to 100 nM	–	O=C1NCc2nc(-c3c(F)cccc3F)c(F)c(Nc3ccc(N4CCOCC4)cn3)c21 [Compound I-254, 2-(2,6-difluorophenyl)-3-fluoro-4-((5-morpholinopyridin-2-yl)amino)-6,7-dihydro-5H-pyrrolo[3,4-b]pyridin-5-one]
